From patent publication US20140357512A1, “HISTONE DEACETYLASE (HDAC) BIOMARKERS IN MULTIPLE MYELOMA” (priority 2013, published 2014)

Test system: human myeloma cell line MM.1S
Assay: SILAC acetylated-lysine peptide profiling, HDAC inhibitor vs DMSO (light/heavy ratio)
Format: cell-based
Text: An embodiment of the invention comprises utilizing the SILAC method in order to quantitate changes in protein expression between two or more populations of cells. The SILAC method is a technique based on mass spectrometry that detects differences in protein abundance among samples using non-radioactive isotopic labeling. The SILAC method is known in the art, and described in detail in Ong et al., “Stable Isotope Labeling by Amino Acids in Cell Culture, SILAC, as a Simple and Accurate Approach to Expression Proteomics”, Molecular & Cellular Proteomics, vol. 1, pp. 376-386 (2002), which is incorporated herein by reference in its entirety.
Briefly, the SILAC method involves growing two populations of cells in cell culture. The first population of cells is grown in growth media containing normal amino acids (“normal media”). The second population of cells is grown in media lacking a standard essential amino acid (such as lysine), but is then supplemented with a non-radioactive, isotopically labeled form of that essential amino acid (such as lysine labeled with ^13C atoms, rather than normal ^12C atoms), which is called “heavy media”. When the two populations of cells are each growing in the medium, they incorporate the amino acids into all of their proteins. The growth of cells maintained in the heavy media is no different from that in normal media. All peptides containing the heavy amino acids are heavier than their normal counterparts. The cells from each of the two populations of cells are lysed. The lysates from each of the two cell populations are then combined. The combined cell lysates are then analyzed by mass spectrometry. Pairs of chemically identical peptides of different stable isotope composition can be differentiated in a mass spectrometer due to their difference in mass. The ratio of peak intensities in the mass spectrum for such peptide pairs reflects the abundance ratio for the two proteins.
This example describes SILAC studies that were performed to compare the effects of three different HDAC inhibitors (Compound A, Compound B, and tubastatin A) to a control on a human multiple myeloma cell line. The HDAC inhibitors were also compared amongst themselves to determine differences in their effects.
A human myeloma cell line MM.1S was grown using either ^12C (light) or ^13C (heavy) lysine containing culture medium. The “heavy” cells were treated with DMSO as the control, and the “light” cells were treated with a single HDAC inhibitor at 37° C. for 6 hours. The heavy and light cells were lysed, and the lysates were mixed in 1:1 ratio and digested with the protease trypsin. The acetylated lysine containing peptides (due to the action of the HDAC inhibitor) in the digested peptide pool were captured by a non-specific anti-acetylated lysine antibody cocktail (the antibodies identify both light and heavy acetylated peptides), and subjected to mass spectrometry analysis in order to identify thousands of individual peptides.
Thousands of peptides were identified in pairs (^12C and ^13C) due to their known mass differences. The amino acid sequence and quantitative ratio (Light/Heavy) of a given peptide in two differentially treated cell lysates were then determined and annotated with their possible protein (gene) sources.
As stated above, three HDAC inhibitors (Compound A, Compound B, and Tubastatin A) were used. Thus, the SILAC method was performed three times, with a different HDAC inhibitor compared to a control each time. Accordingly, there are three pairs of quantitative data in the table below, i.e., Compound A:DMSO, Compound B:DMSO, and Tubastatin A:DMSO. A cut-off of 1.30 fold of change (increase or decrease) was then used to determine “changed” or “+” in the table, and any peptides with a fold of change less than 1.3 fold were determined to be “unchanged” or “0” in the table. Those peptides that were not identified were marked as “NA” in the table. […]

With `O=C(NO)c1cnc(NC2(c3cccc(F)c3)CCCCC2)nc1` [Compound B, 2-((1-(3-fluorophenyl)cyclohexyl)amino)-N-hydroxypyrimidine-5-carboxamide] the “L/H ratio of acetylated peptide FEK(ac)[…] (SEQ ID NO: 32)” value (DDX17 [132], log 2 scale, drug vs DMSO) was 0.00, the “L/H ratio of acetylated peptide” value (DK(ac)WLCPLSGK (SEQ ID NO: 452), Isoform 2 of Serrate RNA effector molecule homolog [712], SRRT) was 0.42 log 2 and the “L/H ratio of acetylated peptide” value (DK(ac)[…] (SEQ ID NO: 456), F-box-like/WD repeat-containing protein TBL1XR1 [102], TBL1XR1) was 0.86 log 2. The “L/H ratio of acetylated peptide ELNK(ac)ILEGR (SEQ ID NO: 2)” value (DLAT [466], log 2 scale, drug vs DMSO) was 0.47, the “light to heavy ratio (L/H ratio) of acetylated peptide, log 2 scale” value (“light to heavy ratio (L/H ratio) … log 2 scale” for short) (DLEK(ac)WQNNLLPSR (SEQ ID NO: 211), 40S ribosomal protein 515a [88], RPS15A) was 0.00 and the “light to heavy ratio (L/H ratio) … log 2 scale” value (DLMTDLK(ac)SEISGDLAR (SEQ ID NO: 129), Annexin A6 [418], ANXA6) was 0.00. The “light to heavy ratio (L/H ratio) of acetylated peptide TFEK(ac)SMMNLQTK (SEQ ID NO: 354)” value (DNA topoisomerase 1 [642], TOP1, drug:DMSO) was 0.46 log 2, the “L/H ratio of acetylated peptide VVK(ac)HPIFER (SEQ ID NO: 35)” value (DNAJB11 [247], log 2 scale, drug vs DMSO) was 0.00 and the “L/H ratio of acetylated peptide” value (DVFNK(ac)GYGFGMVK (SEQ ID NO: 467), Isoform 1 of Voltage-dependent anion-selective channel protein 3 [20], VDAC3) was −0.73 log 2. The “light to heavy ratio (L/H ratio) … log 2 scale” value (DVK(ac)FGADAR (SEQ ID NO: 173), 60 kDa heat shock protein mitochondrial [31], HSPD1) was 0.00, the “L/H ratio of acetylated peptide” value (DVTK(ac)AMDEK (SEQ ID NO: 426), Isoform 2 of 6-phosphofructokinase muscle type [329], PFKM) was 0.53 log 2 and the “L/H ratio of acetylated peptide SFDSEFK(ac)LACK (SEQ ID NO: 8)” value (DYNC1H1 [4283], log 2 scale, drug vs DMSO) was 0.51. The “light to heavy ratio (L/H ratio) of acetylated peptide DTYIENEK(ac)LISGK (SEQ ID NO: 352)” value (Dolichyl-diphosphooligosaccharide--protein glycosyltransferase subunit 1 precursor [626], RPN1, drug:DMSO) was 0.77 log 2, the “light to heavy ratio (L/H ratio) of acetylated peptide YNIEK(ac)DIAAHIK (SEQ ID NO: 553)” value (Dynein light chain 1 cytoplasmic [36], gene DYNLL1, inhibitor:DMSO) was 0.00 log 2 and the “light to heavy ratio (L/H ratio) of acetylated peptide YNIEK(ac)DIAAYIK (SEQ ID NO: 331)” value (Dynein light chain 2 cytoplasmic [36], DYNLL2, drug:DMSO) was −0.45 log 2. The “L/H ratio of acetylated peptide” value (EFTK(ac)LEEVLTNK (SEQ ID NO: 400), Glutathione S-transferase omega-1 [152], GSTO1) was −0.60 log 2, the “L/H ratio of acetylated peptide TSK(ac)NK(ac)SSLSR (SEQ ID NO: 14)” value (EP300 [1558:1560], log 2 scale, drug vs DMSO) was 0.43 and the “L/H ratio of acetylated peptide” value (ESESVDK(ac)VMDQK (SEQ ID NO: 404), Isoform 1 of Heterogeneous nuclear ribonucleoprotein D0 [153], HNRNPD) was −0.53 log 2. The “light to heavy ratio (L/H ratio) … log 2 scale” value (EVHK(ac)[…] (SEQ ID NO: 181), Isoform 1 of L-lactate dehydrogenase A chain [232], LDHA) was 0.00, the “light to heavy ratio (L/H ratio) … log 2 scale” value (EVQTNDLK(ac)EVVNK (SEQ ID NO: 223), 40S ribosomal protein S3a [182], SNORD73A, RPS3A) was 0.00 and the “light to heavy ratio (L/H ratio) of acetylated peptide YLAEK(ac)YEWDVAEAR (SEQ ID NO: 332)” value (Elongation factor 2 [638], EEF2, drug:DMSO) was −0.40 log 2. The “light to heavy ratio (L/H ratio) of acetylated peptide TFK(ac)GVVDVVMK (SEQ ID NO: 550)” value (Elongation factor G 2 mitochondrial precursor [265], gene GFM2, inhibitor:DMSO) was 0.00 log 2, the “light to heavy ratio (L/H ratio) of acetylated peptide KSDYIK(ac)LYVR (SEQ ID NO: 315)” value (Endoplasmin [410], HSP90B1, drug:DMSO) was 0.00 log 2 and the “light to heavy ratio (L/H ratio) of acetylated peptide EK(ac)[…] (SEQ ID NO: 314)” value (Endoplasmin[ 142], HSP90B1, drug:DMSO) was 0.00 log 2. For the same molecule, the “light to heavy ratio (L/H ratio) of acetylated peptide EVEEDEYK(ac)AFYK (SEQ ID NO: 261)” value (Endoplasmin[ 356], HSP90B1, drug:DMSO) was 0.00 log 2, the “light to heavy ratio (L/H ratio) of acetylated peptide LMCK(ac)PIFSK (SEQ ID NO: 335)” value (Eukaryotic translation initiation factor 2 subunit 3 [312], EIF2S3, drug:DMSO) was 0.49 log 2 and the “light to heavy ratio (L/H ratio) of acetylated peptide SHLAK(ac)EGLYQYK (SEQ ID NO: 533)” value (Eukaryotic translation initiation factor 3 subunit A [68], gene EIF3A, inhibitor:DMSO) was 0.00 log 2. For the same molecule, the “L/H ratio of acetylated peptide” value (FAFK(ac)EVEVQAK (SEQ ID NO: 397), Putative rRNA methyltransferase 3 [218], FTSJ3) was 0.74 log 2, the “L/H ratio of acetylated peptide” value (FEDENFHYK(ac)HDR (SEQ ID NO: 431), Peptidyl-prolyl cis-trans isomerase D [111], PPID) was 0.46 log 2 and the “L/H ratio of acetylated peptide” value (FGIAAK(ac)YMLDCR (SEQ ID NO: 468), Isoform 1 of Voltage-dependent anion-selective channel protein 3 [224], VDAC3) was 0.43 log 2. The “L/H ratio of acetylated peptide” value (FK(ac)ECLDK (SEQ ID NO: 420), Isoform 2 of N-alpha-acetyltransferase 15 NatA auxiliary subunit [307], NAA15) was 0.60 log 2 and the “light to heavy ratio (L/H ratio) … log 2 scale” value (FLEQQNK(ac)[…] (SEQ ID NO: 241), Vimentin [129], VIM) was 0.00.
